Measured values from ChEMBL document CHEMBL1147436, “Synthesis of N,N'-disubstituted 3-aminobenzo[c] and [d]azepin-2-ones as potent and specific farnesyl transferase inhibitors” (Bioorg Med Chem Lett, 2004).

Legend:
[1] = target: T1, Protein farnesyltransferase (Homo sapiens, UniProt P49354+P49356); experiment: Inhibition of farnesyltransferase; format: protein-complex assay
[2] = Inhibitory activity against v-H-Ras gene transfected cell line; format: functional
[3] = target: T1, Protein farnesyltransferase; experiment: Inhibition of Farnesyltransferase; format: protein-complex assay
[4] = tested on: Mus musculus; experiment: Percent control tumor size in mouse xenograft assay (rat H-ras transformed fibroblasts) at 200 mg/kg peroral dose; format: functional; details: route oral
[5] = tested on: Mus musculus; experiment: Percent control tumor size in mouse xenograft assay (rat H-ras transformed fibroblasts) at 100 mg/kg peroral dose; format: functional; details: route oral
[6] = Inhibition of geranylgeranyl transferase

Row | Structure (SMILES) | IC50 [1] [nM] | IC50 [2] [nM] | IC50 [3] [nM] | Control [4] [%] | Control [5] [%] | IC50 [6] [nM]
1 | N#Cc1ccc(Cn2cncc2CNC2Cc3ccccc3CN(Cc3cc(F)cc(F)c3F)C2=O)cc1 (centres undefined) | 18 | 47 | – | – | – | –
2 | Cc1ccccc1CN1CCc2ccccc2C(NCc2cncn2Cc2ccc(C#N)cc2)C1=O (centres undefined) | 54 | 96 | – | – | – | –
3 | N#Cc1ccc(Cn2cncc2CNC2C(=O)N(c3cc(Cl)cc(Cl)c3)CCc3ccccc32)cc1 (centres undefined) | – | 19 | 32 | – | – | –
4 | N#Cc1ccc(Cn2cncc2CNC2C(=O)N(Cc3cccc(F)c3)CCc3ccccc32)cc1 (centres undefined) | 78 | 67 | – | – | – | –
5 | N#Cc1ccc(Cn2cncc2CN[C@H]2CCCCN(Cc3ccccc3)C2=O)cc1 | 8 | 10 | – | – | – | –
6 | N#Cc1ccc(Cn2cncc2CNC2C(=O)N(c3ccccc3)CCc3ccccc32)cc1 (centres undefined) | 54 | 95 | – | – | – | –
7 | N#Cc1ccc(Cn2cncc2CNC2C(=O)N(Cc3cc(F)cc(F)c3)CCc3ccccc32)cc1 (centres undefined) | 26 | 379 | – | – | – | –
8 | Cc1ccccc1CN1Cc2ccccc2CC(NCc2cncn2Cc2ccc(C#N)cc2)C1=O (centres undefined) | 3 | 4 | – | 57 | 76 | 7100
9 | N#Cc1ccc(Cn2cncc2CN[C@H]2Cc3ccccc3CN(c3cccc(Cl)c3)C2=O)cc1 | 1 | 7 | – | 35 | 60 | 25000
10 | N#Cc1ccc(Cn2cncc2CN[C@H]2Cc3ccccc3CN(c3ccccc3)C2=O)cc1 | 19 | 16 | – | – | – | –
11 | N#Cc1ccc(Cn2cncc2CNC2Cc3ccccc3CN(Cc3ccc(Cl)cc3Cl)C2=O)cc1 (centres undefined) | 142 | 141 | – | – | – | –
12 | N#Cc1ccc(Cn2cncc2CNC2Cc3ccccc3CN(c3cc(F)cc(F)c3)C2=O)cc1 (centres undefined) | 10 | 40 | – | – | – | –
13 | N#Cc1ccc(Cn2cncc2CNC2Cc3ccccc3CN(CC3CCCCC3)C2=O)cc1 (centres undefined) | 47 | 26 | – | – | – | –
14 | N#Cc1ccc(Cn2cncc2CNC2Cc3ccccc3CN(Cc3ccc(F)cc3F)C2=O)cc1 (centres undefined) | 55 | 115 | – | – | – | –
15 | N#Cc1ccc(Cn2cncc2CNC2C(=O)N(Cc3cccc(Br)c3)CCc3ccccc32)cc1 (centres undefined) | 22 | 60 | – | – | – | –
16 | N#Cc1ccc(Cn2cncc2CNC2C(=O)N(c3cc(F)cc(F)c3)CCc3ccccc32)cc1 (centres undefined) | 62 | 86 | – | – | – | –
17 | N#Cc1ccc(Cn2cncc2CNC2Cc3ccccc3CN(c3cc(Cl)cc(Cl)c3)C2=O)cc1 (centres undefined) | 15 | 7 | – | – | – | –
18 | N#Cc1ccc(Cn2cncc2CNC2C(=O)N(Cc3ccccc3Cl)CCc3ccccc32)cc1 (centres undefined) | 23 | 92 | – | – | – | –
19 | N#Cc1ccc(Cn2cncc2CNC2Cc3ccccc3CN(Cc3cc(F)cc(F)c3)C2=O)cc1 (centres undefined) | 8 | 16 | – | – | – | –
20 | N#Cc1ccc(Cn2cncc2CNC2Cc3ccccc3CN(Cc3ccccc3)C2=O)cc1 (centres undefined) | 17 | 6 | – | – | – | –
21 | N#Cc1ccc(Cn2cncc2CNC2Cc3ccccc3CN(Cc3cccc(Cl)c3)C2=O)cc1 (centres undefined) | 6 | 4 | – | – | – | –
22 | N#Cc1ccc(Cn2cncc2CNC2Cc3ccccc3CN(Cc3ccccc3Cl)C2=O)cc1 (centres undefined) | 10 | 6 | – | – | – | –
23 | N#Cc1ccc(Cn2cncc2CNC2C(=O)N(Cc3cccc(Cl)c3)CCc3ccccc32)cc1 (centres undefined) | 23 | 183 | – | – | – | –
24 | N#Cc1ccc(Cn2cncc2CNC2Cc3ccccc3CN(c3ccccc3)C2=O)cc1 (racemic) | 26 | 36 | – | – | – | –
25 | N#Cc1ccc(Cn2cncc2CNC2Cc3ccccc3CN(c3cccc(Cl)c3)C2=O)cc1 (racemic) | 4 | 16 | – | – | – | –
26 | N#Cc1ccc(Cn2cncc2CNC2Cc3ccccc3CN(c3cccc([N+](=O)[O-])c3)C2=O)cc1 (racemic) | 13 | 46 | – | – | – | –
27 | N#Cc1ccc(Cn2cncc2CNC2Cc3ccccc3CN(c3cccc(F)c3)C2=O)cc1 (racemic) | 9 | 39 | – | – | – | –
28 | COc1cccc(N2Cc3ccccc3CC(NCc3cncn3Cc3ccc(C#N)cc3)C2=O)c1 (racemic) | 6 | 15 | – | – | – | –
29 | N#Cc1ccc(Cn2cncc2CNC2Cc3ccccc3CN(c3cccc(Br)c3)C2=O)cc1 (racemic) | 15 | 5 | – | – | – | –
30 | N#Cc1ccc(Cn2cncc2CNC2C(=O)N(c3cccc(Cl)c3)CCc3ccccc32)cc1 (racemic) | 19 | 39 | – | 43 | 70 | 7700
